We go through 4 compounds from patent US6984496B2, “Vitro assay for testing gabapentinoid activity” (Warner-Lambert Company, priority 2001, dated 2006).

Ends that are not written are not given here.

Assay [1] deals with NK1 mediated Elk-1 transcription. Description: NK1 mediated Elk-1 luciferase reporter assay in CHO-NK-1 cells stimulated with substance P. The note with it: substance P 20 nM, 4 hours. (Reporter assays use an easily measured gene product as a stand-in for the process of interest.)
Protocol: CHO-NK-1 cells were seeded to plates and grown to confluency overnight. Lipofectamine transfection was performed on the confluent cells to insert Elk-1 and luciferase vectors necessary for a MAP kinase dependent reporter system. Prior to transfection, the cells were washed in OPTI media (Gibco). To each confluent well in a 24-well plate, 20 ng of Elk-1 and 200 ng of luciferase DNA vectors were added. In addition to the vectors, 1.5 μL of Lipofectamine Reagent (Gibco) and OPTI media (Gibco) were also added for a total transfection volume of 200 μL (a master mix was made prior to use). After a 3-hour incubation, the media was changed to F-12 growing media (500 μL/well) for an additional 3-hour incubation. After the second incubation, the media was changed again to DMEM (500 μL/well) for serum starvation and incubated overnight (all incubations at 37° C.).
In addition, lipofectamine transfection was performed on CHO-NK-1 confluent cells to insert a GAL4-Elk-1 fusion protein and luciferase vector using the methods described above.
The DMEM media was decanted off the plate, and the cells were washed with 500 μL of Kreb buffer. After the wash, 460 μL of Kreb buffer containing 2 mM sodium pyruvate was added to each well and incubated for 30 minutes at 37° C. Next, 20 μL of compound was added to each well at the desired concentration and incubated for another 30 minutes. […] Finally, the cells were stimulated with Substance-P (final concentration=20 nM), and the cells were incubated for 4 hours at 37° C. After the 4-hour incubation, the buffer was decanted off the plate, and the plate was washed twice with Dulbecco's-PBS. Cells were lysed with 100 μL per well of cell Lysis Buffer (Promega), and the plate was vortexed for 10 minutes. Finally, 10 μL of the cell lysate was transferred to a 96-well reader plate, and each well's luminescence was measured using a luminometer (the Promega Luciferase Reporter system was used).
Assay [2] has as its system rat mGluR5 mediated Erk-2 phosphorylation. The assay can be described thus: mGluR5 mediated Erk phosphorylation in CHO-mGluR5 cells, Western blot with anti-pErk antibody. Format: cell-based. As for the experimental part:
. Products from treated cells were analyzed by Western blotting with anti-pErk antibody.
CHO cells engineered to express mGluR5 (CHO-mGluR5 cells) were plated in 12-well tissue culture plates at a density of 20,000 cells/well and grown for 24 hours, followed by further culturing in serum free medium for 16 hours. CHO-mGluR5 cells were incubated in Krebs buffer for 30 minutes at which time 1 mM sodium pyruvate and 10 μ/mL glutamic-pyruric transaminase was added. […] . […] Proteins in cell extracts were separated by SDS-PAGE and transferred to nitrocellulose membrane. The membrane was blocked overnight at 4° C. with 4% BSA in Tris-buffered saline containing 0.2% (v/v) Tween 20 (TBST). The membrane was then incubated for 1 hour at room temperature (RT) with antiphospho MAP kinase antibody (1:1000 dilution) in 1% BSA and TBST, then washed with TBST followed by incubation with antirabbit IgG HRP antibody. After a final wash with TBST, the membrane was visualized using enhanced chemiluminescence reagents.
Activation of Erk-1 and -2 by stimulating CHO-mGluR5 cells with 100 μM quisqualate was examined by using an antibody specific to phosphorylated Erk-1 and -2. As shown in FIG. 1 (Lane 1), there was little phosphorylated Erk-1 and -2 in unstimulated CHO cells. […] .

The next assay deals with MAP kinase. The assay can be described thus: MAP kinase activation in CHO-NK-1 cells, Western blot with activation-specific antibodies. Format: cell-based, Chinese Hamster. The note with it: 10 nM substance-P, data not shown.
A further assay has as its system Jun kinase. The assay can be described thus: Jun kinase activation in CHO-NK-1 cells, Western blot with activation-specific antibodies. Format: cell-based, Chinese Hamster. Conditions: 10 nM substance-P, data not shown. From the text: (§1) Since P38 and Jun kinases are closely related to MAP kinase, the effects of substance-P on these kinases was examined.
(In general: Immunoblotting shows a protein as a band on a membrane.)

The subject of the next assay is P38. The assay can be described thus: P38 activation in CHO-NK-1 cells, Western blot with activation-specific antibodies. Format: cell-based, Chinese Hamster. Conditions: 10 nM substance-P, data not shown.
Source text: as §1

For assay [3], the system named is PMA mediated Erk-2 phosphorylation. The assay can be described thus: PMA mediated Erk-2 phosphorylation in differentiated IMR-32 cells, Western blot. It counts as cell-based, human. The note with it: 30 minutes preincubation, PMA stimulation. On the procedure:
[…]. Differentiated IMR-32 cells were pretreated with indicated concentrations of gabapentin for 30 minutes and then stimulated with PMA for 10 minutes. Products from treated cells were analyzed by Western blotting with anti-pErk antibody.
IMR-32 cells were grown in MEM media (Gibco BRL, 11095-080), supplemented with 10% fetal bovine serum (Gibco BRL, 26140-087), 1% antibiotic-antimycotic (Gibco BRL, 15240-096), and 1% L-glutamine (Gibco BRL, 25030-032). Cells, grown to confluency, were differentiated for a period of 7 to 10 days, or longer, by adding 1 mM dibutyryl cAMP (Sigma D-0627) and 2.5 μM 5-bromo-2-deoxyuridine (Sigma B-9285) to the media. The differentiation media was fed continuously to cells until the cells were used in an experiment. Cells were divided into groups and preincubated for 30 minutes either in the presence or absence of indicated concentration of gabapentin then subsequently challenged with 50 nM PMA for […]. […]. Proteins in cell extracts were separated by SDS-PAGE and transferred to nitrocellulose membrane. The nitrocellulose membrane was blocked overnight at 4° C. with 4% BSA in Tris-buffered saline containing 0.2% (v/v) Tween 20 (TBST). The membrane was then incubated for 1 hour at RT with antiphospho MAP kinase antibody (1:1000 dilution) in 1% BSA and TBST, then washed with TBST followed by incubation with antirabbit IgG HRP antibody. […]

For assay [4], the system named is PMA mediated Elk-1 transcription in CHO cells. Description: PMA mediated Elk-1 reporter assay in CHO cells.
Protocol: (§2) PKC competent cells are stimulated with PMA, preferably in the range of 50 nM, to activate Erk-2. Activated Erk-2, as discussed above, activates Elk-1 which induces reporter gene expression. […] As above, cells may be incubated with the target compound before treatment with PMA.
Assay [5] relates to PMA mediated Elk-1 transcription in IMR-32 cells. The assay can be described thus: PMA mediated Elk-1 reporter assay in IMR-32 cells. The note with it: 50 nM PMA.
Protocol: as §2

With `O=C(NOCC1CC1)c1ccc(F)c(F)c1Nc1ccc(I)cc1Cl` [PD 184352], the “inhibition of Elk-1 mediated luciferase activity elicited by substance P” value (shortened to “inhibition … by substance P”) in assay [1] is “completely inhibited”. Besides, in assay [2] (CHO-mGluR5 cells, data not shown), the “effect on quisqualate activated Erk phosphorylation (positive control)” value was “block the effect of quisquolate”.

Turning to “substance-P: a tackykinin neuropeptide that acts through the NK1, NK2, and NK3 receptors (RPKPQQFFGLM-NH2; ends and bridges not checked; UniProt P20366 58-68, looked up)”, the “activation of MAP kinase” value with MAP kinase is given as “significantly activated”. In the assay on Jun kinase, the “activation of Jun kinase” value is “no effect”. For the same compound, in the assay with P38, the “activation of P38” value is given as “no effect”.

For the compound `NCC1(CC(=O)O)CCCCC1` [gabapentin, 1-(aminomethyl) cyclohexaneacetic acid], the “inhibition … by substance P” value in assay [1] is listed as “dose dependent inhibition”. In addition, the “effect on PMA increased Erk-2 phosphorylation” value in assay [3] is on record as “dose-dependently blocked”. The “reduction of quisqualate activated phosphorylated Erk-2” value in assay [2] (100 μM compound preincubated 30 minutes, 100 μM quisqualate 5 minutes, CHO-mGluR5 cells) came to 50%. In assay [2] (gabapentin treated CHO-mGluR5 cells, no quisqualate (Lane 3)), the “phosphorylated Erk-1 and -2 in the absence of quisqualate” value was “little or no phosphorylated Erk-1 and -2”. For the same compound, in assay [4], the “effect on PMA activated reporter gene activity” value is on record as “in a dose-dependent manner, reduced”. Also, the “effect on PMA-induced Elk-1 reporter gene expression” value in assay [5] was “dose-dependently decreased”.

In the case of `CC(C)C[C@H](CN)CC(=O)O` [pregabalin], in assay [1], the “inhibition … by substance P” value is recorded as “dose dependent inhibition”.
